Experimental data reported in PMC11511194, “Key Factors for Improving Predictive Accuracy and Avoiding Overparameterization of the PBPK Absorption Model in Food Effect Studies of Weakly Basic Water-Insoluble Compounds in Immediate Release Formulations” (Pharmaceutics, 2024).
Like-named read-outs stand apart in the source and are kept apart here. One block for each compound: values may come before it.

Experiments:
Caco-2 permeability = assay type: in vitro ADME; conditions: human, Apical pH : Basolateral pH 7.4 : 7.4, Passive&Active, Table S6 source 'Measured'
Method: Precipitation parameters, such as critical supersaturation ratio (CSC) and precipitation rate constant (PRC), were evaluated when precipitation occurs in the neutral intestinal environment after the mixture of solution and undissolved substance is transferred from the gastric chamber in vitro. These parameters were evaluated by fitting the two-stage dissolution profile according to the crystallization kinetics equations [28, 29, 30]. The absorption module of the PBPK models for rivaroxaban, ticagrelor, and PB-201 was developed using the Advanced Dissolution, Absorption and Metabolism (ADAM) model, which incorporates a mechanistic framework based on drug permeability and the diffusion layer model (DLM). The calibrated permeability of drugs, as determined using the Caco-2 Transwell model, was used to represent the permeability of drugs in vivo [31]. The particle size of the APIs used in the formulation development was incorporated into the Particle Population Balance (PPB) option. The full PBPK model, which includes the predicted steady-state distribution volume (Vss) and tissue-plasma partition coefficient (Kp), was utilized to describe the distribution characteristics of these compounds. The Kp scalar was estimated via sensitive analysis to match observed concentration-time (C-T) profiles. […]

Caco-2 = conditions: Apical pH : Basolateral pH 7.4 : 7.4, Passive&Active, cited from earlier work
[1] = ticagrelor metabolite; supplement ref 14; cited from earlier work
[2] = active metabolite of ticagrelor; supplement ref 17; cited from earlier work
[3] = Additional hepatic/systemic clearance fitted in PBPK model
Text: (§1) S2. PBPK model development and validation physicochemical parameters for these three model drugs, including protein binding and Blood-to-Plasma (B/P) ratio, were obtained from experimental results, while log P and pKa were estimated based on the molecular formula using Gastro Plus ADMET software (version 10.3, […]
(§2) S2.1. Rivaroxaban PBPK model development and validation
S2.1.1. Rivaroxaban PBPK model development for metabolism and elimination module […]
its systemic clearance, CLint_CYP3A4, CLint_CYP2J2 and CLHLM were fitted according to the metabolic fraction of rivaroxaban in vivo and concentration-time profiles from the SAD clinical trial in Caucasian subjects under fasted state. […]
permeability-limited kidney and liver models were employed to account for the active efflux […]
Physicochemical properties

CYP3A4 = CYP3A4 intrinsic clearance fitted in PBPK model; conditions: Fitted to clinical PK profiles
Text: as §1, §2
S2.1.1. Rivaroxaban PBPK model development for metabolism and elimination module Given that the metabolic fractions of CYP3A4 and CYP2J2 to the systemic clearance of rivaroxaban were approximately 18% and 14% [1], respectively, and liver hydrolases contributed to about 14% of its systemic clearance, CLint_CYP3A4, CLint_CYP2J2 and CLHLM were fitted according to the metabolic fraction of rivaroxaban in vivo and concentration-time profiles from the SAD clinical trial in Caucasian subjects under fasted state. Considering that rivaroxaban was a substrate of P-gp transporter, and that about 36% and 7% of the parent drug were directly excreted by the kidney and liver, respectively, rivaroxaban may undergo active efflux through the kidney and liver in vivo [2]. Consequently, permeability-limited kidney and liver models were employed to account for the active efflux mechanism of P-gp for rivaroxaban. These models include both passive diffusion and active transport.
Clearances for passive diffusion in the kidney and liver was calculated using Equation S1 [5] and Equation S2 [6], respectively.
CL௉஽,௜ =2×P௔௣௣ × TSA௜ ሺS1ሻ where CLPD,i is the passive diffusion clearance of the drug in compartment i, Papp is the apparent permeability of the drug, and the TSAi is the regional tubular surface area of compartment i.
Log CL௉஽ =0.82×logD଻.ସ +0.5 ሺS2ሻ where CLPD is the passive diffusional clearance of APIs in the liver, and log D 7.4 is the oil-water partition coefficient at pH 7.4 [6] […]
Blood-to-plasma partition ratio 0.714 Measured
Fraction unbound in plasma 0.065 Measured […]
Caco-2(10-6cm/s) (Rivaroxaban) 8.103 Measured […]

Papp (Caco-2 permeability): 294 nm/s
SMILES: CC(C)NCC(O)COc1cccc2ccccc12 (centres unmarked) [Propranolol]
Caco-2 permeability (Caco-2; supplement ref 4): 31 10-6cm/s

Additional HLM CLint [3]: 5000 μL/min/mg protein
Intrinsic clearance of CYP 3A4 (CYP3A4): 6.000 µL/min/pmol
SMILES: CCCSc1nc(N[C@@H]2C[C@H]2c2ccc(F)c(F)c2)c2nnn([C@@H]3C[C@H](O)[C@@H](O)[C@H]3O)c2n1 [AR-C124910XX]
Fraction unbound in plasma [1]: 0.002
renal excretion [2]: about 0.04%

SMILES: CN/C(=N/CCSCc1nc[nH]c1C)NC#N [Cimetidine]
Caco-2 permeability (Caco-2; supplement ref 4): 2.36 10-6cm/s

SMILES: COCCc1ccc(OCC(O)CNC(C)C)cc1 (centres unmarked) [Metoprolol]
Caco-2 permeability (Caco-2; supplement ref 19): 15.0 10-6cm/s
